In patent US5486596A, “Analogues of 8-D-homoarginine vasopressin” (Ceskoslovenska akademie ved, priority 1989, dated 1996):
Read-outs that look alike come from different tables or passages of the source. Bridge positions count the residues as written; N and C are the ends. Square brackets hold non-standard residues; d marks the D form. Peptide text beside a SMILES is read from it. dPhe(4-Et) = CCc1ccc(C[C@@H](N)C(=O)O)cc1; dPhe(4-Me) = Cc1ccc(C[C@@H](N)C(=O)O)cc1; Phe(4-Et) = CCc1ccc(C[C@H](N)C(=O)O)cc1; Phe(4-Me) = Cc1ccc(C[C@H](N)C(=O)O)cc1; d(hArg) = N=C(N)NCCCC[C@@H](N)C(=O)O; Mpa = O=C(O)CCS

Tests used:
[1] = test system: rats; settings: for Uterotonic activity: agonistic activity, rat
[2] = test system: despinalized male rats; settings: for Pressoric activity: despinalized male rats
[3] = test system: rats; assay: antidiuretic activity according to Burn, dDAVP as standard; format: in vivo; settings: rat, relative to the standard dDAVP
Method: The biological activity of the peptides was tested on rats, namely: the uterotonic activity (agonistic and antagonistic) according to the Holton's method (Holtdon, J.: Brit. J. Pharmacol., 3,328, 1960) modified by Munsick (Endocrinology, 66, 451, 1960), the inhibitory activity being expressed as pA2 (Eggen et al.: J. Gen. Physiol., 56, 250, 1970), the pressoric activity was determined on despinalized male rats according to Krejci et al. (Brit. J. Pharm. Chemother., 30, 497, 1967) and the antidiuretic activity according to Burn (Burn et al.: Biol. Stand. Oxford Univ. Press, London, 1950) with [deaminol, D-arginine^8 ]vasopressin (dDAVP) used as the standard.

[4] = test system: FVIII; assay: FVIII activity in squirrel monkeys (blood coagulation); format: in vivo; settings: for FVIII/%: squirrel monkeys, saline control = 100% (basal value)
Method: (§1) Compounds of the present invention ware evaluated for their ability to affect blood coagulation and fibrinolytic properties. The compounds were compared with [8-D-argenine]deamino vasopressin in squirrel monkeys. The findings of dissociated blood coagulation/fibrinolytic properties and the inhibitory properties are new and surprising properties for the series of vasopressin derived peptides.

[5] = test system: tPA; assay: tPA activity in squirrel monkeys (fibrinolytic properties); format: in vivo; settings: for tPA/%: squirrel monkeys, saline control = 100% (basal value)
Method: as §1

[6] = inhibitory (antagonistic) activity expressed as pA2, rat
[7] = inhibitory activity expressed as pA2, despinalized male rats

Compound	Uterotonic activity, pA2 [1]	Antidiuretic activity [3]	Uterotonic activity, pA2 [1, 6]	FVIII/% [4] [%]	tPA/% [5] [%]	other results
COc1ccc(C[C@@H]2NC(=O)[C@@H](N)CSSC[C@@H](C(=O)N3CCC[C@H]3C(=O)N[C@H](CCCCNC(=N)N)C(=O)NCC(N)=O)NC(=O)[C@H](CC(N)=O)NC(=O)[C@H](CCC(N)=O)NC(=O)[C@H](Cc3ccccc3)NC2=O)cc1 [I, [2-O-methyltyrosine, 8-D-homoarginine]vasopressin]	7.7					
Cc1ccc(C[C@@H]2NC(=O)CCSSC[C@@H](C(=O)N3CCC[C@H]3C(=O)N[C@H](CCCCNC(=N)N)C(=O)NCC(N)=O)NC(=O)[C@H](CC(N)=O)NC(=O)[C@H](CCC(N)=O)NC(=O)[C@H](Cc3ccccc3)NC2=O)cc1 [IX, [Mpr^1, L-p-MePhe^2, D--Har^8] vasopressin] ([Mpa][Phe(4-Me)]FQNCP[d(hArg)]G-NH2; disulfide 1-6)	8.38					Pressoric activity, pA2 ([2]; rat, in vivo): 6.2
COc1ccc(C[C@@H]2NC(=O)CCSSC[C@@H](C(=O)N3CCC[C@H]3C(=O)N[C@H](CCCCNC(=N)N)C(=O)NCC(N)=O)NC(=O)[C@H](CC(N)=O)NC(=O)[C@H](CCC(N)=O)NC(=O)[C@H](Cc3ccccc3)NC2=O)cc1 [VI, [1-mercaptopropionic acid, 2-O-methyltyrosine 8-D-homoarginine]vasopressin]	8.1					
CCc1ccc(C[C@@H]2NC(=O)CCSSC[C@@H](C(=O)N3CCC[C@H]3C(=O)N[C@H](CCCCNC(=N)N)C(=O)NCC(N)=O)NC(=O)[C@H](CC(N)=O)NC(=O)[C@H](CCC(N)=O)NC(=O)[C@H](Cc3ccccc3)NC2=O)cc1 [VII, [Mpr^1, L-p-EtPhe^2, D--Har^8] vasopressin] ([Mpa][Phe(4-Et)]FQNCP[d(hArg)]G-NH2; disulfide 1-6)	8.0					Pressoric activity, pA2 ([2]; rat, in vivo): 6.2
CCc1ccc(C[C@H]2NC(=O)CCSSC[C@@H](C(=O)N3CCC[C@H]3C(=O)N[C@H](CCCCNC(=N)N)C(=O)NCC(N)=O)NC(=O)[C@H](CC(N)=O)NC(=O)[C@H](CCC(N)=O)NC(=O)[C@H](Cc3ccccc3)NC2=O)cc1 [VIII, [Mpr^1, D-p-EtPhe^2, D--Har^8] vasopressin] ([Mpa][dPhe(4-Et)]FQNCP[d(hArg)]G-NH2; disulfide 1-6)	8.63					Pressoric activity, pA2 ([2]; rat, in vivo): 6.35
Cc1ccc(C[C@H]2NC(=O)CCSSC[C@@H](C(=O)N3CCC[C@H]3C(=O)N[C@H](CCCCNC(=N)N)C(=O)NCC(N)=O)NC(=O)[C@H](CC(N)=O)NC(=O)[C@H](CCC(N)=O)NC(=O)[C@H](Cc3ccccc3)NC2=O)cc1 [X, [Mpr^1, D-p-MePhe^2, D--Har^8] vasopressin] ([Mpa][dPhe(4-Me)]FQNCP[d(hArg)]G-NH2; disulfide 1-6)	8.68					
[2-p-ethyl-D-phenylalanine, 8-D-homoarginine]vasopressin [III]		< 0.1 % dDAVP	8.15			Pressoric activity, pA2 [2, 7]: 6.5
[2-p-ethyl-L-phenylalanine, 8-D-homoarginine]vasopressin [II]		< 0.1 % dDAVP	7.40			Pressoric activity, pA2 [2, 7]: 6.5
[2-p-methyl-D-phenylalanine, 8-D-homoarginine]vasopressin		< 0.1 % dDAVP	6.85	55	65	Pressoric activity [2]: 0.04 IU/mg
[2-p-methyl-L-phenylalanine, 8-D-homoarginine]vasopressin [IV]		< 0.1 % dDAVP	6.85	85	77	Pressoric activity [2]: 0.04 IU/mg
[8-D-arginine] deamino vasopressin				149	138.9	effect on expression of Factor VIII, in words ([4]; monkey, in vivo): increase; effect on expression of tPA, in words ([5]; monkey, in vivo): increase
[D--Har^8 ] vasopressin [reference compound]		~ 1 % dDAVP				Uterotonic activity [1]: 0.9 IU/mg
[Mpr^1, D--Har^8 ] vasopressin [reference compound]		~ 5 % dDAVP		127	88	Uterotonic activity [1]: 0.8 IU/mg; Pressoric activity [2]: 0.28 IU/mg
